# Laboratory results from patent US8148391B2 (Cephalon, Inc., priority 2006, dated 2012).
# Read-outs that look alike come from different tables or passages of the source.
# Experiments:
# [1] = target: T1, baculovirus-expressed ALK (Homo sapiens, UniProt Q9UM73); assay: ALK Kinase Assay (ELISA-type, time-resolved fluorescence); format: biochemical
# T1 construct: host or cells: baculovirus expression system
# How it was run: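 Wells were coated with phospholipase C-γ at 10 μg/mL in Tris-buffered saline. Adding 30 ng/ml enzyme started the reaction, which ran at 37° C for 15 minutes before Eu-N1 PT66 antibody detection. Percent inhibition versus log10 concentration gave IC50 by variable-slope fit.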
# [2] = target: T2, c-Met (cytoplasmic domain) (Homo sapiens, UniProt P08581); assay: c-Met Kinase Assay (same methods as for ALK, with modifications); format: biochemical
# T2 construct: 10 ng/mL c-Met (cytoplasmic domain, Invitrogen Corporation #PV3143); purchased Invitrogen Corporation PV3143
# How it was run: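 IC50 values were fitted by variable-slope sigmoidal regression of percent inhibition against log compound concentration. Phosphorylation was read with Eu-N1 PT66 antibody after a 15 min, 37 °C reaction. The reaction was initiated with 10 ng/mL c-Met cytoplasmic domain on wells coated with 10 μg/mL PLC-γ in TBS.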
# [3] = ALK kinase inhibition, 1 μM ATP (Km level), read-out: ALK Activity
# [4] = c-Met kinase inhibition, 1 μM ATP (Km level), read-out: cMet Activity
# [5] = 1 μM ATP (Km level), 30 ng/ml ALK, 37° C., 15 minutes, read-out: ALK Activity (ALK kinase inhibition, IC50 class)
# [6] = 1 μM ATP (Km level), 10 ng/mL c-Met, read-out: cMet Activity (c-Met kinase inhibition, IC50 class)
# T1 sequence (Q9UM73 19-1620): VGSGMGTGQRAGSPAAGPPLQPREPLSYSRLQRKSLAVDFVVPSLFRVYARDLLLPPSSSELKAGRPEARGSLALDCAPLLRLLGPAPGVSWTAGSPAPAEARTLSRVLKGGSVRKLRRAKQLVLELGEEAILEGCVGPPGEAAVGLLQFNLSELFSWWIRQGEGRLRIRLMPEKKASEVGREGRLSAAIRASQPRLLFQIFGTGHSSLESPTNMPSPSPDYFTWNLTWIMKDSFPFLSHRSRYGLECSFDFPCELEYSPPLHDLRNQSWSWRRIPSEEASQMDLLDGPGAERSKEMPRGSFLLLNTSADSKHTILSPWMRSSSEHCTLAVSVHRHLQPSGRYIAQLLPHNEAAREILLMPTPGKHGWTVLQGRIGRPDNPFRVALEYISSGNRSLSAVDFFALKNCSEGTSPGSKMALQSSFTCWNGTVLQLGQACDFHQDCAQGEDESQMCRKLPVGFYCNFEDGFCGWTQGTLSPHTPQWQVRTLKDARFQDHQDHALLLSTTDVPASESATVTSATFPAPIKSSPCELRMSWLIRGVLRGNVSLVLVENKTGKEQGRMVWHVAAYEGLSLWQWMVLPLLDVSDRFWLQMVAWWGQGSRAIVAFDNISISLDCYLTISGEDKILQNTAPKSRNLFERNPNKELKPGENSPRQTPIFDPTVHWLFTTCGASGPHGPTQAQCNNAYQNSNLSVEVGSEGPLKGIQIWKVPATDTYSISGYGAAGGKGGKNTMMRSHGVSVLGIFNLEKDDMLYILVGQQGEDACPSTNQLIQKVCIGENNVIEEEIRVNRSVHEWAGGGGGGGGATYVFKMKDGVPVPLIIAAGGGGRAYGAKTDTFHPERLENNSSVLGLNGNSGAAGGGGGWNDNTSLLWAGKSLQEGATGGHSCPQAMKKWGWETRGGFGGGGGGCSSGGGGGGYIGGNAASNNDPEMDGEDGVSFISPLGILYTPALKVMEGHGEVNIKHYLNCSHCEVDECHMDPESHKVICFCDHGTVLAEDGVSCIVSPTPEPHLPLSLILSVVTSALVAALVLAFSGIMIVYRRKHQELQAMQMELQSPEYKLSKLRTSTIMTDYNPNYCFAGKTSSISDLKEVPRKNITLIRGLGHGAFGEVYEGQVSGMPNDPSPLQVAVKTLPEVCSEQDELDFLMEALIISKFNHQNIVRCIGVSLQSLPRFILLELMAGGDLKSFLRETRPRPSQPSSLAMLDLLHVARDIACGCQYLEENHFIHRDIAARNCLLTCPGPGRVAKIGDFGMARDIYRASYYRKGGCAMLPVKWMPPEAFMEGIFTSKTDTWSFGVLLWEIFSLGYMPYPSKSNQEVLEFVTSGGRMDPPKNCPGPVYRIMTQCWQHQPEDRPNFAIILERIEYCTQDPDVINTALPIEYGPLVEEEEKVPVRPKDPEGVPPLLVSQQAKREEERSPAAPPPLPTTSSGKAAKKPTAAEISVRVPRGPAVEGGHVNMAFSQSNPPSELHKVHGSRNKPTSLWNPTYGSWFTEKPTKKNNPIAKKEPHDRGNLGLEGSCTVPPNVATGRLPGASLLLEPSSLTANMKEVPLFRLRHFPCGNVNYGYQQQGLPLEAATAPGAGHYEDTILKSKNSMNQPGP
# T2 sequence (P08581 956-1390 limits assumed): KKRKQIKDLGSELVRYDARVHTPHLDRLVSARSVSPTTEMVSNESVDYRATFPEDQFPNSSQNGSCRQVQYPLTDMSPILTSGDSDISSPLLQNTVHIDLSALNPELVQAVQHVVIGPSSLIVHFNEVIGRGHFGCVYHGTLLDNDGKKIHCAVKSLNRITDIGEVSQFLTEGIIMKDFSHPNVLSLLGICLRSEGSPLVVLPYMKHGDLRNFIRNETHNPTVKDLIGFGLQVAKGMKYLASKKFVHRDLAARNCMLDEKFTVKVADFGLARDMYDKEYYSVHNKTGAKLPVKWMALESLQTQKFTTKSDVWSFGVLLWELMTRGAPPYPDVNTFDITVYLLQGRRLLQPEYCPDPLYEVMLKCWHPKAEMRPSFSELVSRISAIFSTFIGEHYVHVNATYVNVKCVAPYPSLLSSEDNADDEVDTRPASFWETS
Compound,"IC50 [1, 5]","IC50 [2, 6]",further results
"CCN1C(=O)CCCc2c1ccc(Nc1ncc(Cl)c(NC3C4C=CC(C4)C3C(N)=O)n1)c2OC (stereo not drawn) [Example 121, (2-exo,3-exo)-3-[5-Chloro-2-(1-ethyl-6-methoxy-2-oxo-2,3,4,5-tetrahydro-1H-benzo[b]azepin-7-ylamino)-pyrimidin-4-ylamino]-bicyclo[2.2.1]hept-5-ene-2-carboxylic acid amide]",,,"IC50 [1, 3]: < 100 nM; IC50 [2, 4]: > 10000 nM"
"CNC(=O)C1(Nc2nc(Nc3cc4c(cc3OC)CCN(CCOC)CC4)ncc2Cl)CC1 [Example 1196, 1-{5-Chloro-2-[8-methoxy-3-(2-methoxy-ethyl)-2,3,4,5-tetrahydro-1H-benzo[d]azepin-7-ylamino]-pyrimidin-4-ylamino}-cyclopropanecarboxylic acid methylamide]",1000 to 10000 nM,> 10000 nM,
"(1S,2S,4R)-3-{5-Chloro-2-[3-(2-dimethylamino-acetylamino)-1-ethyl-6-methoxy-2-oxo-2,3,4,5-tetrahydro-1H-benzo[b]azepin-7-ylamino]-pyrimidin-4-ylamino}-bicyclo[2.2.1]hept-5-ene-2-carboxylic acid amide [Example 1353]",< 100 nM,> 10000 nM,
"COc1cc(N2CCOCC2)ccc1Nc1nc(Nc2ccc3c(c2)C2CCC3CN(C(=O)C(F)(F)F)C2)ncc1Cl (centres unmarked) [Example 290, 2-{4-[5-Chloro-4-(2-methoxy-4-morpholin-4-yl-phenylamino)-pyrimidin-2-ylamino]-10-aza-tricyclo[6.3.2.0*2,7*]trideca-2,4,6-trien-10-yl}-2,2,2-trifluoro-ethanone]",,,"IC50 [1, 3]: 100 to 1000 nM; IC50 [2, 4]: > 10000 nM"
"COCCNC1CCc2cc(Nc3ncc(Cl)c(Nc4ccccc4S(=O)(=O)C(C)C)n3)c(OC)cc2CC1 (centres unmarked) [Example 1084, 5-Chloro-N*2*-[3-methoxy-7-(2-methoxy-ethylamino)-6,7,8,9-tetrahydro-5H-benzocyclohepten-2-yl]-N*4*-[2-(propane-2-sulfonyl)-phenyl]-pyrimidine-2,4-diamine]",< 100 nM,1000 to 10000 nM,
"COc1cc2c(cc1Nc1ncc(Cl)c(N[C@H]3[C@@H](C(N)=O)[C@@H]4C=C[C@H]3C4)n1)NC(=O)CN(CC1CC1)C2 [Example 1667, (1S,2S,3R,4R)-3-[5-Chloro-2-(4-cyclopropylmethyl-7-methoxy-2-oxo-2,3,4,5-tetrahydro-1H-benzo[e][1,4]diazepin-8-ylamino)-pyrimidin-4-ylamino]-bicyclo[2.2.1]hept-5-ene-2-carboxylic acid amide]",,,"IC50 ([1]; ALK kinase inhibition, 1 μM ATP, read-out: ALK Activity): < 100 nM; IC50 ([2]; c-Met kinase inhibition, 1 μM ATP, read-out: cMet Activity): > 10000 nM"
"COCCN1CCc2cc(Nc3ncc(Cl)c(Nc4cc(C(N)=O)ccc4OC)n3)c(OC)cc2CC1 [Example 1140, 3-{5-Chloro-2-[8-methoxy-3-(2-methoxy-ethyl)-2,3,4,5-tetrahydro-1H-benzo[d]azepin-7-ylamino]-pyrimidin-4-ylamino}-4-methoxy-benzamide]",1000 to 10000 nM,> 10000 nM,
"CCNC(=O)c1ccccc1Nc1nc(Nc2cccc3c2OCCCC3(C)C)ncc1Cl [Example 873, 2-[5-Chloro-2-(5,5-dimethyl-2,3,4,5-tetrahydro-benzo[b]oxepin-9-ylamino)-pyrimidin-4-ylamino]-N-ethyl-benzamide]",,,"IC50 ([1]; 1 μM ATP (Km level), read-out: ALK Activity (ALK Kinase Inhibition, IC50)): < 100 nM; IC50 ([2]; 1 μM ATP (Km level), read-out: cMet Activity (c-Met Kinase Inhibition, IC50)): > 10000 nM"

# Continued, in another order:
"IC50 [1, 5]","IC50 [2, 6]",Compound,further results
< 100 nM,> 10000 nM,"CNC(=O)C1(Nc2nc(Nc3cc4c(cc3OC)CCN(CC(=O)N(C)C)CC4)ncc2Cl)CC1 [Example 1198, 1-[5-Chloro-2-(3-dimethylcarbamoylmethyl-8-methoxy-2,3,4,5-tetrahydro-1H-benzo[d]azepin-7-ylamino)-pyrimidin-4-ylamino]-cyclopropanecarboxylic acid methylamide]",
< 100 nM,100 to 1000 nM,"CCOC(=O)c1ccccc1Nc1nc(Nc2ccc3c(c2)CCN(CCOC)CC3)ncc1Cl [Example 1395, {5-Chloro-2-[3-(2-methoxy-ethyl)-2,3,4,5-tetrahydro-1H-benzo[d]azepin-7-ylamino]-pyrimidin-4-ylamino}-benzoic acid ethyl ester]",
